From patent US20090220562A1, “Osteogenic and anti-adipogenic oxysterols” (priority 2005, published 2009)

Columns and labels:
Type in all cases: cell-based, mouse
[1] = tested on: osteocalcin mRNA; assay: Northern blotting for osteocalcin mRNA in M2-10B4 cells; settings: for levels of osteocalcin mRNA relative to the control: 5 μM, eight days, M2-10B4
Protocol: RNA isolation and Northern blot analysis—Following treatment of cells under appropriate experimental conditions, total RNA was isolated using the RNA isolation kit from Stratagene (La Jolla, Calif., U.S.A.). Total RNA ([…]) was run on a 1% agarose/formaldehyde gel and transferred to Duralon-UV membranes (Strategene, CA, U.S.A.) and cross-linked with UV light. The membranes were hybridized overnight at 60 degree C. with ^32P-labeled mouse osteocalcin cDNA probe, mouse lipoprotein lipase (LPL), mouse adipocyte protein 2 (aP^2) PCR-generated probes, human 28S or 18S rRNA probes obtained from Geneka Biotechnology (Montreal, Quebec, Canada) and Maxim Biotech (San Francisco, Calif., U.S.A.), respectively. The PCR products were generated using primer sets synthesized by Invitrogen (Carlsbad, Calif., U.S.A.) with the following specifications: mouse aP2 gene (accession no. M13261); sense (75-95) 5′-[…]-3′, antisense (362-383) 5′-[…]-3′, generating a PCR product of 309 base pairs. Mouse LPL (accession no. XM—134193); sense (1038-1058) 5′-[…]-3′, antisense (1816-1836) 5′-[…]-3′, generating a PCR product of 799 base pairs. The PCR products were gel-purified and sequenced by the UCLA sequencing core, showing the highest similarity to their respective GenBank entries. Following hybridization, the blots were washed twice at room temperature with 2×SSC+0.1% SDS, and then twice at 60 degree C. with 0.5×SSC+0.1% SDS, and exposed to X-ray film. The extent of gene induction was determined by densitometry.
After 4 and 8 days, total RNA from duplicate samples was isolated and analyzed for osteocalcin (Osc) and 28S rRNA expression by Northern blotting as described. FIG. 3E is a radiogram of Northern blotting for osteocalcin mRNA in M2 cells exposed to a control or combination of oxysterols for 4 or 8 days. FIG. 3F is a bar graph depicting the relative demsometric units of osteocalcin mRNA in M2 cells exposed to a control or combination of oxysterols for 4 -or 8 days. Data from densitometric analysis of the Northern blot is shown in (F) as the average of duplicate samples, normalized to 28S rRNA.
(§1) Next, a combination of 22R and 20S oxysterols (RS, 2.5 μM each) were added in the presence or absence of SC as indicated. After 3 days, ALP activity was measured as described earlier. […] (B) M2 cells were treated as described in (A) and after 10 days matrix mineralization in cultures was quantified by a ^45Ca incorporation assay as described earlier. […] (C) M2 cells were pretreated with 20 μM SC for 4 hours, followed by the addition of RS in the presence or absence of SC as described above. After 8 days, total RNA was isolated and analyzed for osteocalcin (Osc) and […] expression by Northern blotting as previously described. Data from densitometric analysis of the Northern blot is shown in (D) as the average of duplicate samples, normalized to 18S rRNA. (E) M2 cells at confluence were pretreated for 2 hours with control vehicle (C), or PLA2 inhibitors ACA (25 μM) and AACOCF3 (AAC, 20 μM), in osteogenic medium. Next, a combination of 22R and 20S oxysterols (RS, 2.5 μM) was added in the presence or absence of the inhibitors as indicated. After 3 days, ALP activity was measured as previously described. […] (F) M2 cells were treated as described in (E). After 10 days, matrix mineralization in cultures was quantified using a ^45Ca incorporation assay as previously described. Results from a representative of three experiments are shown, reported as the mean of quadruplicate determinations ±SD, normalized to protein concentration (p<0.01 for RS vs. RS+ACA and RS+AAC).
ALP activity was measured after 2 days, as described. […] (B) M2 cells were treated as described in (A). After 10 days, matrix mineralization in cultures was quantified using a ^45Ca incorporation assay as described. […] (C) M2 cells were treated under similar conditions as those described above. […]

[2] = tested on: marrow stromal cells; assay: Osteogenic differentiation of marrow stromal cells (marker not specified: ALP activity, osteocalcin mRNA, mineral formation)
Protocol: The purpose of the study was to identify other osteogenic and anti-adipogenic oxysterols based on the chemical structure of previously identified oxysterols. The ability of such candidate oxysterol molecules to induce the formation of osteoblastic cells in cultures of marrow stromal cells (which are progenitors of osteoblastic cells that make bone) were tested. In order to assess osteogenic differentiation of cells, one or more markers of osteogenic differentiation were measured in untreated cells and cells treated with the test oxysterols. These markers included: alkaline phosphatase activity, osteocalcin mRNA expression and mineral formation in cultures of marrow stromal cells. Activation of either one or more than one marker by a single or combination oxysterols is indicative of their osteogenic property.

[3] = tested on: M2-10B4 marrow stromal cells; assay: Alkaline phosphatase (ALP) activity assay on whole cell extracts of M2-10B4 marrow stromal cells; settings: for Enzyme Activity (units/mg total cellular protein) ± SD, alkaline phosphatase: oxysterols 5 μM, 4 days, M2-10B4, untreated 6 ± 3
Protocol: (§2) Cells: M2-10B4 mouse marrow stromal cell line obtained from American Type Culture Collection (ATCC, Rockville, Md., U.S.A.) was derived from bone marrow stromal cells of a (C57BL/6J x C3H/HeJ) Fl mouse, and support human and murine myelopoiesis in long-term cultures (as per ATCC) and have the ability to differentiate into osteoblastic and adipocytic cells. Unless specified, these cells were cultured in RPMI 1640 containing 10% heat-inactivated FBS, and supplemented with 1 mM sodium pyruvate, 100 U/ml penicillin, and 100 U/ml streptomycin (all from Irvine Scientific).
Cells were always treated at 90% confluence. […]
as §1, with “Results from a representative of three experiments are shown, reported as the mean of quadruplicate determinations ±SD, normalized to protein concentration (p<0.01 for RS vs. RS+ACA and RS+AAC).” left out

[4] = tested on: M2 cells; assay: Troglitazone-induced adipogenesis in M2 cells (oil Red O staining, adipocyte count); settings: Tro 10 μM, oxysterol 10 μM, 10 days, alone or in combination
Protocol: (§3) Von Kossa and oil red O staining—Matrix mineralization in cell monolayers was detected by silver nitrate staining as previously described. Oil red O staining for detection of adipocytes was performed as previously described.
Test 1: M2 cells at 90% confluence were treated with vehicle (C), PPAR-γ activator, troglitazone 10 μM (Tro), alone or in combination with 10 μM oxysterols 20S-, 22R-, or 25S-hydroxycholesterol. After 8 days, adipocytes were identified by oil Red 0 staining and quantified by counting under a phase contrast microscope. FIG. 6A is a bar graph depicting the effect of oxysterols on reducing adipogenesis of MSC.
Test 2: (A) M2 cells at confluence were treated in RPMI containing 10% FBS with control vehicle or 10 μM troglitazone (Tro) in the absence or presence of 10 μM 20S or 22S-hydroxycholesterol. After 10 days, adipocytes were visualized by oil Red O staining and quantified by light microscopy, shown in (B). […] (C) M2 cells were treated at confluence with 10 μM Tro, alone or in combination with 10 μM 20S oxysterol. After 10 days, total RNA was isolated and analyzed for lipoprotein lipase (LPL), adipocyte P2 gene (aP2) or 18S rRNA expression by Northern blotting as described (Ref). Data from densitometric analysis of the Northern blot is shown in (D) as the average of duplicate samples, normalized to 18S rRNA.

[5] = tested on: Runx2; assay: Runx2 DNA binding and protein expression in M2-10B4 cells; settings: pretreatment; cyclopamine 1-10 μM; DKK-1 1 μg/ml (Runx2 protein expression only)
Protocol: Method: Marrow stromal cells (M2-10B4 (M2)) were treated with doses of 5-15 μM 20S-hydroxycholestrol.
Method: Marrow stromal cells (M2-10B4 (M2)) were treated with doses of 5-15 μM20S-hydroxycholestrol. Groups of cells were pre-treated with 22S or 22R.
Method: Marrow stromal cells (M2-10B4 (M2)) were pretreated with Wnt signaling inhibitor, DKK-1 (1 μg/ml), then treated with 20S-hydroxycholestrol and 22(8)-hydroxycholesterol.

[6] = tested on: M2-10B4 marrow stromal cells; assay: Matrix mineralization (45Ca incorporation assay, von Kossa staining) in M2-10B4 marrow stromal cells; settings: pretreatment; cyclopamine 1-10 μM, DKK-1 1 μg/ml
Protocol: as §2, §3
^45Ca incorporation assay—Matrix mineralization in cell monolayers was quantified using the ^45Ca incorporation assay as previously described.
After 14 days, mineralization was identified by a von Kossa staining, which appears black. FIG. 3C is a depiction of von Kossa staining of M2 cells exposed to various conditions.
After 14 days, matrix mineralization in cultures was quantified using a ^45Ca incorporation assay.
as §1
(A) M2 cells at confluence were pretreated for four hours with RPMI containing 1% FBS, followed by treatment with control vehicle or 5 μM 20S oxysterol for 1, 4, or 8 hours. Next total cell extracts were prepared and analyzed for levels of native or phosphorylated ERK (pERK) using specific antibodies as previously described. Data from a representative of four experiments are shown, each treatment shown in duplicate samples. (B) M2 cells at confluence were pretreated for 2 hours with control vehicle (C) or 20 μM PD98059 (PD) in osteogenic medium as previously described. Next, a combination of 22R and 20S oxysterols (RS, 5 μM each) were added to appropriate wells as indicated. After 10 days of incubation, matrix mineralization was quantified by the ^45Ca incorporation assay as previously described. […] (C) M2 cells at confluence were pretreated for 2 hours with 20 µM PD98059 (PD) in RPMI containing 5% FBS. Next, the cells were treated with control vehicle (C), 10 μM troglitazone (Tro), or 10 μM of 20S or 22S oxysterols, alone or in combination as indicated. After 10 days, adipocytes were visualized by oil Red O staining and quantified by light microscopy as previously described. […]

| Compound | levels of osteocalcin mRNA relative to the control [1] | osteogenic property, alone or in combination with originally described oxysterols [2] | Enzyme Activity (units/mg total cellular protein) ± SD, alkaline phosphatase [3] | further results |
| --- | --- | --- | --- | --- |
| CC(C)CCC[C@@H](C)[C@H]1CC[C@H]2[C@@H]3CC=C4[C@@H](O)[C@@H](O)CC[C@]4(C)[C@H]3CC[C@]12C [4beta-hydroxycholesterol] | moderate increase | osteoinductive | – | – |
| CC(C)CCC[C@@H](C)[C@H]1CC[C@H]2[C@@H]3C(=O)C=C4C[C@@H](O)CC[C@]4(C)[C@H]3CC[C@]12C [7-ketocholesterol, reference compound] | – | – | – | induction of alkaline phosphatase activity ([3]; 10 μM oxysterol, 3 days, osteogenic medium): did not induce; effect on troglitazone-induced adipogenesis [4]: unable to inhibit adipogenesis |
| CC(C)[C@@H](O)CC[C@@H](C)[C@H]1CC[C@H]2[C@@H]3CC=C4C[C@@H](O)CC[C@]4(C)[C@H]3CC[C@]12C [24-hydroxycholesterol, 24(S)-hydroxycholesterol] | – | osteoinductive | 250 ± 20 units/mg total cellular protein | – |
| C[C@H](CC[C@@H]1OC1(C)C)[C@H]1CC[C@H]2[C@@H]3CC=C4C[C@@H](O)CC[C@]4(C)[C@H]3CC[C@]12C [24S,25-epoxycholesterol] | increased | osteoinductive | 1,588 ± 19^ units/mg total cellular protein | – |
| CC1=C2C[C@H]3[C@@H](CC=C4C[C@@H](O)CC[C@@]43C)[C@@H]2CC[C@]12O[C@@H]1C[C@H](C)CN[C@H]1[C@H]2C [cyclopamine, reference compound] | – | – | – | effect on SS-induced osteocalcin mRNA expression ([1]; pretreatment, cyclopamine 1-10 μM, DKK-1 1 μg/ml): inhibited; effect on SS-induced Runx2 DNA binding and protein expression [5]: inhibited; effect on SS-induced mineralization [6]: inhibited |
